# Results from PubChem BioAssay (NCI).
#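 Briefly, cells in 96-well plates were exposed to five compound concentrations for 48 h, and endpoints were estimated by linear interpolation. TGI is the concentration that stops growth completely.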
# How the values were obtained:
# Assay in all cases: NCI anticancer screen, dose series, 48 h
# OVCAR-5 ovarian = system: OVCAR-5 ovarian
# NCI/ADR-RES ovarian = system: NCI/ADR-RES ovarian
# M14 melanoma = system: M14 melanoma
# MDA-MB-231 breast = system: MDA-MB-231 breast
# DU-145 prostate = system: DU-145 prostate
# CCRF-CEM leukemia = system: CCRF-CEM leukemia
# HOP-92 NSCLC = system: HOP-92 NSCLC
# SK-MEL-2 melanoma = system: SK-MEL-2 melanoma
# HCC-2998 colon = system: HCC-2998 colon
# A549 NSCLC = system: A549 NSCLC
# A498 renal = system: A498 renal
# KM12 colon = system: KM12 colon
# SNB-75 CNS = system: SNB-75 CNS
# NCI-H226 lung = system: NCI-H226 lung
# SF-268 CNS = system: SF-268 CNS
# ACHN renal = system: ACHN renal
# COLO 205 colon = system: COLO 205 colon
# NCI-H23 lung = system: NCI-H23 lung
# UACC-257 melanoma = system: UACC-257 melanoma
# MDA-MB-435 = system: MDA-MB-435
# OVCAR-3 ovarian = system: OVCAR-3 ovarian
# HS 578T breast = system: HS 578T breast
# IGROV1 ovarian = system: IGROV1 ovarian
# UACC-62 melanoma = system: UACC-62 melanoma
# HL-60(TB) leukemia = system: HL-60(TB) leukemia
# SK-MEL-5 melanoma = system: SK-MEL-5 melanoma
# PC-3 prostate = system: PC-3 prostate
# HCT-116 colon = system: HCT-116 colon
# TK-10 renal = system: TK-10 renal
# BT-549 breast = system: BT-549 breast
# SN12C renal = system: SN12C renal
# MDA-N = system: MDA-N
# MALME-3M melanoma = system: MALME-3M melanoma
# K-562 leukemia = system: K-562 leukemia
# SK-MEL-28 melanoma = system: SK-MEL-28 melanoma
# UO-31 renal = system: UO-31 renal
# LOX IMVI melanoma = system: LOX IMVI melanoma
# HOP-62 NSCLC = system: HOP-62 NSCLC
# CAKI-1 renal = system: CAKI-1 renal
# NCI-H460 lung = system: NCI-H460 lung
# OVCAR-4 ovarian = system: OVCAR-4 ovarian
# SNB-19 CNS = system: SNB-19 CNS
# RPMI-8226 leukemia = system: RPMI-8226 leukemia
# U251 CNS = system: U251 CNS
# HCT-15 colon = system: HCT-15 colon
# SW-620 colon = system: SW-620 colon
# T-47D breast = system: T-47D breast
# SR leukemia = system: SR leukemia
# 786-0 renal = system: 786-0 renal
# NCI-H522 lung = system: NCI-H522 lung
# HT29 colon = system: HT29 colon
# OVCAR-8 ovarian = system: OVCAR-8 ovarian
# MOLT-4 leukemia = system: MOLT-4 leukemia
# RXF 393 renal = system: RXF 393 renal
# MCF7 breast = system: MCF7 breast
# EKVX NSCLC = system: EKVX NSCLC
# SK-OV-3 ovarian = system: SK-OV-3 ovarian
# SF-295 CNS = system: SF-295 CNS
# SF-539 CNS = system: SF-539 CNS
smiles,measurement,setting,value
COc1cccc(-c2c(C#N)c(N)nc3c2CCS(=O)(=O)c2ccc(C)cc2-3)c1,TGI,OVCAR-5 ovarian,> 100 µM
same,TGI,NCI/ADR-RES ovarian,> 100 µM
same,TGI,M14 melanoma,> 100 µM
same,TGI,MDA-MB-231 breast,> 100 µM
same,TGI,DU-145 prostate,> 100 µM
same,TGI,CCRF-CEM leukemia,> 100 µM
same,TGI,HOP-92 NSCLC,> 100 µM
same,TGI,SK-MEL-2 melanoma,> 100 µM
same,TGI,HCC-2998 colon,> 100 µM
same,TGI,A549 NSCLC,> 100 µM
same,TGI,A498 renal,> 100 µM
same,TGI,KM12 colon,> 100 µM
same,TGI,SNB-75 CNS,> 100 µM
same,TGI,NCI-H226 lung,> 100 µM
same,TGI,SF-268 CNS,> 100 µM
same,TGI,ACHN renal,> 100 µM
same,TGI,COLO 205 colon,> 100 µM
same,TGI,NCI-H23 lung,> 100 µM
same,TGI,UACC-257 melanoma,> 100 µM
same,TGI,MDA-MB-435,> 100 µM
same,TGI,OVCAR-3 ovarian,> 100 µM
same,TGI,HS 578T breast,> 100 µM
same,TGI,IGROV1 ovarian,> 100 µM
same,TGI,UACC-62 melanoma,> 100 µM
same,TGI,HL-60(TB) leukemia,> 100 µM
same,TGI,SK-MEL-5 melanoma,> 100 µM
same,TGI,PC-3 prostate,> 100 µM
same,TGI,HCT-116 colon,> 100 µM
same,TGI,TK-10 renal,> 100 µM
same,TGI,BT-549 breast,> 100 µM
same,TGI,SN12C renal,> 100 µM
same,TGI,MDA-N,> 100 µM
same,TGI,MALME-3M melanoma,> 100 µM
same,TGI,K-562 leukemia,> 100 µM
same,TGI,SK-MEL-28 melanoma,> 100 µM
same,TGI,UO-31 renal,> 100 µM
same,TGI,LOX IMVI melanoma,> 100 µM
same,TGI,HOP-62 NSCLC,> 100 µM
same,TGI,CAKI-1 renal,> 100 µM
same,TGI,NCI-H460 lung,> 100 µM
same,TGI,OVCAR-4 ovarian,> 100 µM
same,TGI,SNB-19 CNS,> 100 µM
same,TGI,RPMI-8226 leukemia,> 100 µM
same,TGI,U251 CNS,> 100 µM
same,TGI,HCT-15 colon,> 100 µM
same,TGI,SW-620 colon,> 100 µM
same,TGI,T-47D breast,> 100 µM
same,TGI,SR leukemia,> 100 µM
same,TGI,786-0 renal,> 100 µM
same,TGI,NCI-H522 lung,> 100 µM
same,TGI,HT29 colon,> 100 µM
same,TGI,OVCAR-8 ovarian,> 100 µM
O=C(/C=C/c1ccccc1)/C=N/N1C(=S)N(c2ccccc2)C(=Nc2ccccc2)C1=Nc1ccccc1,TGI,OVCAR-5 ovarian,> 100 µM
same,TGI,NCI/ADR-RES ovarian,> 100 µM
same,TGI,M14 melanoma,> 100 µM
same,TGI,MDA-MB-231 breast,> 100 µM
same,TGI,DU-145 prostate,> 100 µM
same,TGI,MOLT-4 leukemia,> 100 µM
same,TGI,HOP-92 NSCLC,> 100 µM
same,TGI,SK-MEL-2 melanoma,> 100 µM
same,TGI,HCC-2998 colon,> 100 µM
same,TGI,A549 NSCLC,> 100 µM
same,TGI,KM12 colon,> 100 µM
same,TGI,NCI-H226 lung,> 100 µM
same,TGI,SF-268 CNS,> 100 µM
same,TGI,ACHN renal,> 100 µM
same,TGI,COLO 205 colon,> 100 µM
same,TGI,RXF 393 renal,> 100 µM
same,TGI,NCI-H23 lung,> 100 µM
same,TGI,UACC-257 melanoma,> 100 µM
same,TGI,OVCAR-3 ovarian,> 100 µM
same,TGI,HS 578T breast,> 100 µM
same,TGI,IGROV1 ovarian,> 100 µM
same,TGI,UACC-62 melanoma,> 100 µM
same,TGI,SK-MEL-5 melanoma,> 100 µM
same,TGI,PC-3 prostate,> 100 µM
same,TGI,MCF7 breast,> 100 µM
same,TGI,HCT-116 colon,> 100 µM
same,TGI,TK-10 renal,> 100 µM
same,TGI,BT-549 breast,> 100 µM
same,TGI,SN12C renal,> 100 µM
same,TGI,MDA-N,> 100 µM
same,TGI,MALME-3M melanoma,> 100 µM
same,TGI,K-562 leukemia,> 100 µM
same,TGI,SK-MEL-28 melanoma,> 100 µM
same,TGI,UO-31 renal,> 100 µM
same,TGI,HOP-62 NSCLC,> 100 µM
same,TGI,CAKI-1 renal,> 100 µM
same,TGI,NCI-H460 lung,> 100 µM
same,TGI,EKVX NSCLC,> 100 µM
same,TGI,SK-OV-3 ovarian,> 100 µM
same,TGI,SNB-19 CNS,> 100 µM
same,TGI,RPMI-8226 leukemia,> 100 µM
same,TGI,U251 CNS,> 100 µM
same,TGI,HCT-15 colon,> 100 µM
same,TGI,SW-620 colon,> 100 µM
same,TGI,SF-295 CNS,> 100 µM
same,TGI,T-47D breast,> 100 µM
same,TGI,SR leukemia,> 100 µM
same,TGI,786-0 renal,> 100 µM
same,TGI,SF-539 CNS,> 100 µM
same,TGI,NCI-H522 lung,62.9 µM
same,TGI,HT29 colon,> 100 µM
same,TGI,OVCAR-8 ovarian,> 100 µM
COc1cc(/C=C/C(=O)c2ccc(NS(=O)(=O)c3cc([N+](=O)[O-])ccc3C)cc2)cc(OC)c1OC,TGI,OVCAR-5 ovarian,11.8 µM
same,TGI,NCI/ADR-RES ovarian,> 100 µM
same,TGI,M14 melanoma,15.3 µM
same,TGI,MDA-MB-231 breast,7.39 µM
same,TGI,DU-145 prostate,10.2 µM
same,TGI,MOLT-4 leukemia,6.58 µM
same,TGI,CCRF-CEM leukemia,7.48 µM
same,TGI,HOP-92 NSCLC,11.5 µM
same,TGI,SK-MEL-2 melanoma,8.47 µM
same,TGI,A549 NSCLC,18.6 µM
same,TGI,KM12 colon,8.02 µM
same,TGI,SNB-75 CNS,14.2 µM
same,TGI,NCI-H226 lung,8.74 µM
same,TGI,ACHN renal,15.9 µM
same,TGI,COLO 205 colon,14.9 µM
same,TGI,RXF 393 renal,11.1 µM
same,TGI,NCI-H23 lung,11 µM
same,TGI,UACC-257 melanoma,21.9 µM
same,TGI,MDA-MB-435,16.3 µM
same,TGI,OVCAR-3 ovarian,11.5 µM
same,TGI,IGROV1 ovarian,17.1 µM
same,TGI,HL-60(TB) leukemia,11.1 µM
same,TGI,SK-MEL-5 melanoma,15.4 µM
same,TGI,PC-3 prostate,19.5 µM
same,TGI,MCF7 breast,9.72 µM
same,TGI,HCT-116 colon,6.49 µM
same,TGI,TK-10 renal,13.9 µM
same,TGI,BT-549 breast,14.4 µM
same,TGI,SN12C renal,4.52 µM
same,TGI,MDA-N,13 µM
same,TGI,K-562 leukemia,10.9 µM
same,TGI,SK-MEL-28 melanoma,25 µM
same,TGI,UO-31 renal,30.4 µM
same,TGI,LOX IMVI melanoma,9.36 µM
same,TGI,HOP-62 NSCLC,11.4 µM
same,TGI,CAKI-1 renal,17.3 µM
same,TGI,OVCAR-4 ovarian,13.5 µM
same,TGI,EKVX NSCLC,17 µM
same,TGI,SK-OV-3 ovarian,15.4 µM
same,TGI,SNB-19 CNS,14.1 µM
same,TGI,RPMI-8226 leukemia,6.21 µM
same,TGI,U251 CNS,13.7 µM
same,TGI,HCT-15 colon,13.4 µM
same,TGI,SW-620 colon,25.5 µM
same,TGI,SF-295 CNS,16.4 µM
same,TGI,T-47D breast,38.6 µM
same,TGI,SR leukemia,5.74 µM
same,TGI,786-0 renal,7.14 µM
same,TGI,SF-539 CNS,6.3 µM
same,TGI,HT29 colon,14.4 µM
same,TGI,OVCAR-8 ovarian,7.97 µM
COC(=O)C(CC12CC3CC(CC(C3)C1)C2)NC(=O)C(N)CC(=O)O (centres undefined),TGI,OVCAR-5 ovarian,> 100 µM
same,TGI,NCI/ADR-RES ovarian,> 100 µM
same,TGI,DU-145 prostate,> 100 µM
same,TGI,MOLT-4 leukemia,> 100 µM
same,TGI,CCRF-CEM leukemia,> 100 µM
same,TGI,HOP-92 NSCLC,> 100 µM
same,TGI,SK-MEL-2 melanoma,> 100 µM
same,TGI,HCC-2998 colon,> 100 µM
same,TGI,A549 NSCLC,> 100 µM
same,TGI,KM12 colon,> 100 µM
same,TGI,SNB-75 CNS,> 100 µM
same,TGI,SF-268 CNS,> 100 µM
same,TGI,ACHN renal,> 100 µM
same,TGI,COLO 205 colon,> 100 µM
same,TGI,RXF 393 renal,> 100 µM
same,TGI,NCI-H23 lung,> 100 µM
same,TGI,UACC-257 melanoma,> 100 µM
same,TGI,MDA-MB-435,> 100 µM
same,TGI,HS 578T breast,> 100 µM
same,TGI,IGROV1 ovarian,> 100 µM
same,TGI,UACC-62 melanoma,> 100 µM
same,TGI,SK-MEL-5 melanoma,> 100 µM
same,TGI,PC-3 prostate,> 100 µM
same,TGI,HCT-116 colon,> 100 µM
same,TGI,TK-10 renal,> 100 µM
same,TGI,BT-549 breast,> 100 µM
same,TGI,SN12C renal,> 100 µM
same,TGI,MDA-N,> 100 µM
same,TGI,K-562 leukemia,> 100 µM
same,TGI,SK-MEL-28 melanoma,> 100 µM
same,TGI,UO-31 renal,> 100 µM
same,TGI,HOP-62 NSCLC,> 100 µM
same,TGI,CAKI-1 renal,> 100 µM
same,TGI,NCI-H460 lung,> 100 µM
same,TGI,OVCAR-4 ovarian,> 100 µM
same,TGI,EKVX NSCLC,> 100 µM
same,TGI,SK-OV-3 ovarian,> 100 µM
same,TGI,SNB-19 CNS,> 100 µM
same,TGI,RPMI-8226 leukemia,> 100 µM
same,TGI,U251 CNS,> 100 µM
same,TGI,HCT-15 colon,> 100 µM
same,TGI,SW-620 colon,> 100 µM
same,TGI,SF-295 CNS,> 100 µM
same,TGI,T-47D breast,> 100 µM
same,TGI,SR leukemia,> 100 µM
same,TGI,786-0 renal,> 100 µM
same,TGI,NCI-H522 lung,> 100 µM
same,TGI,HT29 colon,> 100 µM
same,TGI,OVCAR-8 ovarian,> 100 µM
